# Reference: US10758534B2 (Vertex Pharmaceuticals Incorporated, priority 2014, dated 2020)
# Biological target: T1, F508del (Homo sapiens, UniProt P13569, DEL508-508)
# T1 construct: expressed in transfected cells
# Test: Protocol 2: FRET membrane potential optical assay (VIPR), identification of correction compounds
# Assay type: cell-based
# Conditions: F508del CFTR modulator activity; compounds of Table 1; read-out: EC30
# Procedure, shortened: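 Mouse NIH3T3 cells, stable F508del; cpd 16 hrs, 37° C., serum-free; pos ctrl 27° C. 16 hrs. Rinse in Krebs Ringers, dye load, then add 10 μM forskolin + 20 μM genistein with Cl^−-free (gluconate) medium; depolarization by FRET voltage dyes.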
# T1 sequence (P13569 with tags, fused parts or gaps DEL508-508): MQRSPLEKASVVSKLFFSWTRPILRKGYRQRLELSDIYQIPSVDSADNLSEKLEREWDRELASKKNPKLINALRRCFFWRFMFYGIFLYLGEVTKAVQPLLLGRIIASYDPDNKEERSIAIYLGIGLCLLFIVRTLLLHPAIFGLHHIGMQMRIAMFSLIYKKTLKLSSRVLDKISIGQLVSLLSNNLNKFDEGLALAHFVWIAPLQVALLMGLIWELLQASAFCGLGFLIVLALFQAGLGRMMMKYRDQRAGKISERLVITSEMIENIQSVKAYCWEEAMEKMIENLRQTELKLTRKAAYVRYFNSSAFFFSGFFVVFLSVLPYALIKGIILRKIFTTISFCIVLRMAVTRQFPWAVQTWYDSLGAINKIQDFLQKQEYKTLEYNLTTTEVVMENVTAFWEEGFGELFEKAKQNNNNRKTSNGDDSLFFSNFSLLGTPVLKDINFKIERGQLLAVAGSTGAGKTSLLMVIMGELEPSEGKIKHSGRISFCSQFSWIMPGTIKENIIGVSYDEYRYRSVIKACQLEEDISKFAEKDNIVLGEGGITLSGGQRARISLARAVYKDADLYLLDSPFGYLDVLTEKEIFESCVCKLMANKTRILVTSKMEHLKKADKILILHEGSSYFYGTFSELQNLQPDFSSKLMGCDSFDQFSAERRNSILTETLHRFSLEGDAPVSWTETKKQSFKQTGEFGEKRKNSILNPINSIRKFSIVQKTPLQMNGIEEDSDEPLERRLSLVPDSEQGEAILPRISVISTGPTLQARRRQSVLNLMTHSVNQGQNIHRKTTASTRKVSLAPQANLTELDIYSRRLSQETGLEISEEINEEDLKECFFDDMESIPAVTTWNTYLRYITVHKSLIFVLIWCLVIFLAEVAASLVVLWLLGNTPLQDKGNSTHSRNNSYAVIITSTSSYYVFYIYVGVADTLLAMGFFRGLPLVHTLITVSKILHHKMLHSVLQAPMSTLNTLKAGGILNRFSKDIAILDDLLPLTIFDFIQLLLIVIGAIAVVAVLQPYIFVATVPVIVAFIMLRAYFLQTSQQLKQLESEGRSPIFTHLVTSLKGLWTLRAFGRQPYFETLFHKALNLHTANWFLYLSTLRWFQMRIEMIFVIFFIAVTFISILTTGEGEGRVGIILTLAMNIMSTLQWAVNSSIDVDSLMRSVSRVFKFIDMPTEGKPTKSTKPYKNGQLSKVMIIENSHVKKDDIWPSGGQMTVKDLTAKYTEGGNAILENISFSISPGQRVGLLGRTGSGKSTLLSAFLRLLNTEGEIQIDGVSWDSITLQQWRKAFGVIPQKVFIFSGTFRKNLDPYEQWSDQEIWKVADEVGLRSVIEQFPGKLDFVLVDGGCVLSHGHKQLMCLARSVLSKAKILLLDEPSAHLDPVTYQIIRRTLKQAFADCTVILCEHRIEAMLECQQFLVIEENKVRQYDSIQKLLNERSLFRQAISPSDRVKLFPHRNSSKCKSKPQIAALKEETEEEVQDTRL
row,SMILES,EC30
1,CCOCCN(C)c1ncc(-c2ccc(C(=O)NS(=O)(=O)c3cccc(N)n3)c(N3C[C@@H](C)CC3(C)C)n2)cc1C [Compound 2682],< 3000 nM
2,"CC1CN(c2ncccc2C(=O)NS(=O)(=O)c2cccc(Oc3ccc4ccccc4c3)n2)C(C)(C)C1 (stereo not drawn) [Compound 2611, N—[[6-(2-naphthyloxy)-2-pyridyl]sulfonyl]-2-(2,2,4-trimethylpyrrolidin-1-yl)pyridine-3-carboxamide]",< 3000 nM
3,"COc1ncc(-c2ccc(C(=O)NS(=O)(=O)c3ccc[nH]c3=O)c(N3C[C@@H](C)CC3(C)C)n2)cc1F [Compound 2444, 6-(5-fluoro-6-methoxy-3-pyridyl)-N-[(2-oxo-1H-pyridin-3-yl)sulfonyl]-2-[(4S)-2,2,4-trimethylpyrrolidin-1-yl]pyridine-3-carboxamide]",3000 to 10000 nM
4,"COc1cccc(-c2ccc(C(=O)NS(=O)(=O)c3cccnc3N)c(N3C[C@@H](C)CC3(C)C)n2)c1F [Compound 2562, N-[(2-amino-3-pyridyl)sulfonyl]-6-(2-fluoro-3-methoxy-phenyl)-2-[(4S)-2,2,4-trimethylpyrrolidin-1-yl]pyridine-3-carboxamide]",< 3000 nM
5,"C[C@@H]1CN(c2nc(-n3ccc(-c4ccccc4)n3)ccc2C(=O)NS(=O)(=O)C2CC2)C(C)(C)C1 [Compound 2674, N-cyclopropylsulfonyl-6-(3-phenylpyrazol-1-yl)-2-[(4S)-2,2,4-trimethylpyrrolidin-1-yl]pyridine-3-carboxamide]",< 3000 nM
6,"CC1CN(c2ncccc2C(=O)NS(=O)(=O)c2cccc(Oc3cccc(N(C)C)c3)n2)C(C)(C)C1 (stereo not drawn) [Compound 2443, N—[[6-[3-(dimethylamino)phenoxy]-2-pyridyl]sulfonyl]-2-(2,2,4-trimethylpyrrolidin-1-yl)pyridine-3-carboxamide]",< 3000 nM
7,"Cc1ccc2nc(N3C[C@@H](C)CC3(C)C)c(C(=O)NS(=O)(=O)c3cccc(N)n3)cc2c1 [Compound 2548, N-[(6-amino-2-pyridyl)sulfonyl]-6-methyl-2-[(4S)-2,2,4-trimethylpyrrolidin-1-yl]quinoline-3-carboxamide]",< 3000 nM
8,"CC1CN(c2ncccc2C(=O)NS(=O)(=O)c2cccc(NCc3ccc(C(C)C)cc3)n2)C(C)(C)C1 (stereo not drawn) [Compound 2187, N—[[6-[(4-isopropylphenyl)methylamino]-2-pyridyl]sulfonyl]-2-(2,2,4-trimethylpyrrolidin-1-yl)pyridine-3-carboxamide]",< 3000 nM
9,"COc1cc(Cl)cc(-c2cnc(N3CC(C)CC3(C)C)c(C(=O)NS(=O)(=O)c3cccc(N)n3)c2)c1 (stereo not drawn) [Compound 2545, N-[(6-amino-2-pyridyl)sulfonyl]-5-(3-chloro-5-methoxy-phenyl)-2-(2,2,4-trimethylpyrrolidin-1-yl)pyridine-3-carboxamide]",< 3000 nM
10,"CC1CN(c2ncccc2C(=O)NS(=O)(=O)c2cccc(N3CCCc4ccccc43)n2)C(C)(C)C1 (stereo not drawn) [Compound 2382, N—[[6-(3,4-dihydro-2H-quinolin-1-yl)-2-pyridyl]sulfonyl]-2-(2,2,4-trimethylpyrrolidin-1-yl)pyridine-3-carboxamide]",< 3000 nM
11,"CC1CN(c2ncccc2C(=O)NS(=O)(=O)c2cccc(Nc3cccc(C#N)c3)n2)C(C)(C)C1 (stereo not drawn) [Compound 2484, N—[[6-(3-cyanoanilino)-2-pyridyl]sulfonyl]-2-(2,2,4-trimethylpyrrolidin-1-yl)pyridine-3-carboxamide]",< 3000 nM
12,"CC1CN(c2ncc(C3=CCC(C(F)(F)F)CC3)cc2C(=O)NS(=O)(=O)c2cccc(N)n2)C(C)(C)C1 (stereo not drawn) [Compound 2510, N-[(6-amino-2-pyridyl)sulfonyl]-5-[4-(trifluoromethyl)cyclohexen-1-yl]-2-(2,2,4-trimethylpyrrolidin-1-yl)pyridine-3-carboxamide]",< 3000 nM
13,"CCOc1cccc(-c2ccc(C(=O)NS(=O)(=O)c3ccc[nH]c3=O)c(N3C[C@@H](C)CC3(C)C)n2)c1 [Compound 2235, 6-(3-ethoxyphenyl)-N-[(2-oxo-1H-pyridin-3-yl)sulfonyl]-2-[(4S)-2,2,4-trimethylpyrrolidin-1-yl]pyridine-3-carboxamide]",< 3000 nM

# Same assay, conditions: Table 3; compounds of Table 1 as modulators of CFTR activity; protocol not stated
row,SMILES,EC30
1,"Cc1cc(C)c(Oc2nc(-c3cc(F)cc(OCC(C)C)c3)ccc2C(=O)NS(=O)(=O)c2cccc(C(=O)O)n2)c(C)c1 [Compound 461, 6-[[6-(3-fluoro-5-isobutoxy-phenyl)-2-(2,4,6-trimethylphenoxy)pyridine-3-carbonyl]sulfamoyl]pyridine-2-carboxylic acid]",++ (“++” means between 3 uM and 10 uM)
2,"Cc1cc(C)c(Oc2nc(-c3ccc(F)cc3)ccc2C(=O)NS(=O)(=O)c2cccc(N)n2)c(C)c1 [Compound 93, N-[(6-amino-2-pyridyl)sulfonyl]-6-(4-fluorophenyl)-2-(2,4,6-trimethylphenoxy)pyridine-3-carboxamide]",+++ (“+++” means <3 uM)
3,"CC(C)Oc1ccc(-c2ccc(C(=O)NS(=O)(=O)c3cccc(N)n3)c(N3CCCC(C(C)C)C3)n2)cn1 (stereo not drawn) [Compound 114, N-[(6-amino-2-pyridyl)sulfonyl]-6-(6-isopropoxy-3-pyridyl)-2-(3-isopropyl-1-piperidyl)pyridine-3-carboxamide]",+++ (“+++” means <3 uM)
4,"Cc1ccc(Oc2nc(-c3cc(F)cc(OC(C)C)c3)ccc2C(=O)NS(=O)(=O)c2nccnc2N)c(C)c1 [Compound 559, N-(3-aminopyrazin-2-yl)sulfonyl-2-(2,4-dimethylphenoxy)-6-(3-fluoro-5-isopropoxy-phenyl)pyridine-3-carboxamide]",+++ (“+++” means <3 uM)
5,"CC(C)COc1cc(F)cc(-c2ccc(C(=O)NS(=O)(=O)c3cccc(N)n3)c(N3CCC(Cc4ccccc4)C3)n2)c1 (stereo not drawn) [Compound 473, N-[(6-amino-2-pyridyl)sulfonyl]-2-(3-benzylpyrrolidin-1-yl)-6-(3-fluoro-5-isobutoxy-phenyl)pyridine-3-carboxamide]",+++ (“+++” means <3 uM)
6,"C[C@@H]1CC[C@H](C)N1c1nc(-c2ccc(OC3CCC3)nc2)ccc1C(=O)NS(=O)(=O)c1cccc(N)n1 [Compound 428, N-[(6-amino-2-pyridyl)sulfonyl]-6-[6-(cyclobutoxy)-3-pyridyl]-2-[(2S,5R)-2,5-dimethylpyrrolidin-1-yl]pyridine-3-carboxamide]",+++ (“+++” means <3 uM)
7,"CCC1CCN(c2nc(-c3ccc(OC(C)C)nc3)ccc2C(=O)NS(=O)(=O)c2cccc(N)n2)CC1 [Compound 619, N-[(6-amino-2-pyridyl)sulfonyl]-2-(4-ethyl-1-piperidyl)-6-(6-isopropoxy-3-pyridyl)pyridine-3-carboxamide]",+++ (“+++” means <3 uM)
8,"Cc1cc(C)c(Oc2nc(-c3ccc4c(c3)OCCO4)ccc2C(=O)NS(=O)(=O)c2cccc(N)n2)c(C)c1 [Compound 673, N-[(6-amino-2-pyridyl)sulfonyl]-6-(2,3-dihydro-1,4-benzodioxin-6-yl)-2-(2,4,6-trimethylphenoxy)pyridine-3-carboxamide]",+++ (“+++” means <3 uM)
9,"CC(C)Oc1ccc(-c2ccc(C(=O)NS(=O)(=O)c3cccc(N)n3)c(N3CC[C@@H](C)[C@H]3C)n2)cn1 [Compound 441, N-[(6-amino-2-pyridyl)sulfonyl]-2-[(2R,3R)-2,3-dimethylpyrrolidin-1-yl]-6-(6-isopropoxy-3-pyridyl)pyridine-3-carboxamide]",+++ (“+++” means <3 uM)
10,"CC1CCN(c2nc(-c3cc(F)cc(OCC4CC4)c3)ccc2C(=O)NS(=O)(=O)c2ccc[nH]c2=O)CC1 [Compound 664, 6-[3-(cyclopropylmethoxy)-5-fluoro-phenyl]-2-(4-methyl-1-piperidyl)-N-[(2-oxo-1H-pyridin-3-yl)sulfonyl]pyridine-3-carboxamide]",+++ (“+++” means <3 uM)
11,"Cc1cc(C)c(Cn2c(C(=O)NS(=O)(=O)c3ccncc3)cc3cc(C)ccc32)c(C)c1 [Compound 25, 5-methyl-N-(4-pyridylsulfonyl)-1-[(2,4,6-trimethylphenyl)methyl]indole-2-carboxamide]",++ (“++” means between 3 uM and 10 uM)
12,"CC(C)c1ccccc1Oc1nc(C(C)(C)C)ccc1C(=O)NS(=O)(=O)c1ccccc1 [Compound 147, N-(benzenesulfonyl)-6-tert-butyl-2-(2-isopropylphenoxy)pyridine-3-carboxamide]",+++ (“+++” means <3 uM)
13,"CC(C)COc1cccc(-c2ccc(C(=O)NS(=O)(=O)c3ccc[nH]c3=O)c(N3[C@H](C)CC[C@@H]3C)n2)c1 [Compound 511, 2-[(2S,5R)-2,5-dimethylpyrrolidin-1-yl]-6-(3-isobutoxyphenyl)-N-[(2-oxo-1H-pyridin-3-yl)sulfonyl]pyridine-3-carboxamide]",+++ (“+++” means <3 uM)
14,"Cc1cccc(C)c1Cn1nc(C(C)(C)C)cc1C(=O)NS(=O)(=O)c1ccsc1 [Compound 603, 5-tert-butyl-2-[(2,6-dimethylphenyl)methyl]-N-(3-thienylsulfonyl)pyrazole-3-carboxamide]",+++ (“+++” means <3 uM)
15,"Cc1cc(C)c(Oc2nc(-c3cc(OCC(C)C)ccc3F)ccc2C(=O)NS(=O)(=O)c2cccc(N)n2)c(C)c1 [Compound 351, N-[(6-amino-2-pyridyl)sulfonyl]-6-(2-fluoro-5-isobutoxy-phenyl)-2-(2,4,6-trimethylphenoxy)pyridine-3-carboxamide]",+++ (“+++” means <3 uM)
16,"COc1ccc(-c2ccc(C(=O)NS(=O)(=O)c3cc[nH]n3)c(Oc3c(C)cc(C)cc3C)n2)c(F)c1 [Compound 374, 6-(2-fluoro-4-methoxy-phenyl)-N-(1H-pyrazol-3-ylsulfonyl)-2-(2,4,6-trimethylphenoxy)pyridine-3-carboxamide]",+++ (“+++” means <3 uM)
17,"Cc1cc(C)c(Oc2nc(-c3cnc(N4CCCCC4)nc3)ccc2C(=O)NS(=O)(=O)c2cccc(N)n2)c(C)c1 [Compound 475, N-[(6-amino-2-pyridyl)sulfonyl]-6-[12-(1-piperidyl)pyrimidin-5-yl]-2-(2,4,6-trimethylphenoxy)pyridine-3-carboxamide]",+++ (“+++” means <3 uM)
